Laboratory results published in patent EP1203584A1 (priority 2000, dated 2002).

Legend:
Type in all cases: in vivo, Male Wistar rats
[1] = target: T1, acetylcholinesterase (AChE) (Rattus norvegicus, UniProt P37136); test: Activity of acetylcholinesterase in treated rats; conditions: choline alfoscerate alone, 150 mg/kg
T1 construct: Male Wistar rats were divided into 5 groups; from tissue; host or cells: Male Wistar rats

[2] = system: levels of acetylcholine in the cerebral cortex (frontal area), in the hippocampus and in the corpus striatum; test: Levels of acetylcholine in rat brain areas after 1 week of treatment
[3] = system: immunoreactivity of the neuronal acetylcholine in the neurones of the magnocellular nucleus basalis (MNB) and in the corpus striatum; test: Immunoreactivity of neuronal acetylcholine in MNB and corpus striatum neurones

T1 sequence (P37136 32-614): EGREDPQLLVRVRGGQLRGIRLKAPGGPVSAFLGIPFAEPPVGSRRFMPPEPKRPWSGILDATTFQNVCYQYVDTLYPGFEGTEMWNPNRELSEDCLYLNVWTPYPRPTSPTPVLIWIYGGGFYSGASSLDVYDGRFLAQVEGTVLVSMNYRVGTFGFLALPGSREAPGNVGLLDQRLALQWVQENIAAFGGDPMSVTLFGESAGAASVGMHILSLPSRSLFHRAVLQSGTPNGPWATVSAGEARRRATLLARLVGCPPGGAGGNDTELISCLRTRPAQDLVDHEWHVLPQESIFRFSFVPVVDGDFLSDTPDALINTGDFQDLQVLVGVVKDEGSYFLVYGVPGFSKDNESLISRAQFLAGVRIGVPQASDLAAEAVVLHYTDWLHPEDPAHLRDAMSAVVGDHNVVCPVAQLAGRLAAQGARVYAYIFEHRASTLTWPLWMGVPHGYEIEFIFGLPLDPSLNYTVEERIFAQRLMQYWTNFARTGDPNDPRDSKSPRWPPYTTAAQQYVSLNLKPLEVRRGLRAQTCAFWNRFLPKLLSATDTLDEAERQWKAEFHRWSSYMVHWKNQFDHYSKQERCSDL

Compound | effect on the activity of the AChE [1] | release of acetylcholine ([2]; 150 mg/kg choline alfoscerate, hippocampus and corpus striatum, reason for the choice of dose) | increase in the levels of acetylcholine, compared with rivastigmine ([2]; choline alfoscerate alone versus rivastigmine 2.5 mg/kg, frontal cerebral cortex, hippocampus, corpus striatum) | increased the levels of acetylcholine ([2]; choline alfoscerate alone, 150 mg/kg intraperitoneal, 1 week) | immunoreactivity of the acetylcholine ([3]; choline alfoscerate alone, 150 mg/kg, MNB neurones and interneurones of the corpus striatum, more marked in the MNB) | immunoreactivity of the acetylcholine ([3]; rat, in vivo, 2.5 mg/kg)
C[N+](C)(C)CCOP(=O)([O-])OC[C@H](O)CO [choline alfoscerate] | did not show any effect | significantly increases | to the same extent as the dosage of the AchE inhibitor, rivastigmine | approximately 20% | increased in a similar fashion | 
CCN(C)C(=O)Oc1cccc([C@H](C)N(C)C)c1 [rivastigmine] |  |  |  |  |  | increased in a similar fashion
